Test results taken from publication PMC9228656 (Toxins, 2022).
pIC50: −log10 of the molar value. Like-named read-outs stand apart in the source and are kept apart here.

Key:
[1] = tested on: Salmonella typhimurium 1535/pSK1002
[2] = tested on: Salmonella typhimurium 1535/pSK1002; remark: listed apart in the source
[3] = tested on: Escherichia coli; settings: cited from earlier work
[4] = tested on: Salmonella typhimurium 1535/pSK1002; remark: listed apart in the source
[5] = tested on: Salmonella tester strains; settings: cited from earlier work
[6] = tested on: Escherichia coli PQ37; settings: cited from earlier work
[7] = tested on: 1535, 1538 and 98 strains; settings: cited from earlier work

Compound | experiments with IF values above two [2] | genotoxicity result in the SOS/umu test [2] | genotoxicity result in the SOS/umu test [4] | genotoxicity result in the SOS/umu test [1] | mutagenic activity in the Ames test [5] | further results
Nc1ccc2cc3ccccc3cc2c1 [2AA, 2-aminoanthracene, reference compound] | – | – | – | – | – | experiments in which the compound was genotoxic [1]: eight out of eight experiments; induction factor (IF) reached ([1]; Salmonella typhimurium): around 4
CC(=O)OC[C@]12C[C@H](OC(=O)CC(C)C)C(C)=C[C@H]1O[C@@H]1[C@H](O)[C@@H](O)[C@@]2(C)[C@]12CO2 [HT-2, HT-2 toxin] | two out of four experiments | – | – | – | – | –
C[C@H]1CCCC(=O)CCC/C=C/c2cc(O)cc(O)c2C(=O)O1 [ZEA, zearalenone] | – | negative (key: IF values above or equal to two were considered as positive when the bacterial survival is above 80%; IF values below 1.5 were considered negative; IF among 2 and 1.5 were considered equivocal) | negative (key: IF values above or equal to two were considered as positive when the bacterial survival is above 80%; IF values below 1.5 were considered negative; IF among 2 and 1.5 were considered equivocal) | negative (key: IF values above or equal to two were considered as positive when the bacterial survival is above 80%; IF values below 1.5 were considered negative; IF among 2 and 1.5 were considered equivocal) | – | genotoxic concentration (induction of SOS repair) [3]: 1.5 mM; pIC50 ([3]; read-out: IC50 (toxicity)): 2.84; result in the Ames test [5]: negative
COc1cc2c(c3oc4cccc(O)c4c(=O)c13)[C@@H]1C=CO[C@@H]1O2 [STER, sterigmatocystin] | one out of four experiments | – | – | – | – | induction factor (IF) [1]: greater than two
CC(=O)O[C@@H]1[C@@H](O)[C@H]2O[C@@H]3C=C(C)C(=O)[C@@H](O)[C@]3(CO)[C@]1(C)[C@]21CO1 [F-X, fusarenon-X] | – | negative (key: IF values above or equal to two were considered as positive when the bacterial survival is above 80%; IF values below 1.5 were considered negative; IF among 2 and 1.5 were considered equivocal) | negative (key: IF values above or equal to two were considered as positive when the bacterial survival is above 80%; IF values below 1.5 were considered negative; IF among 2 and 1.5 were considered equivocal) | negative (key: IF values above or equal to two were considered as positive when the bacterial survival is above 80%; IF values below 1.5 were considered negative; IF among 2 and 1.5 were considered equivocal) | mutagenic activity was not found | highest IF value obtained [2]: 1.88
CC(=O)OC[C@]12[C@H](O)C(=O)C(C)=C[C@H]1O[C@@H]1[C@H](O)C[C@@]2(C)[C@]12CO2 [15ADON, 15-acetyldeoxynivalenol] | two out of four experiments | – | – | – | – | –
CCCC[C@@H](C)[C@@H](OC(=O)C[C@@H](CC(=O)O)C(=O)O)[C@H](C[C@@H](C)C[C@H](O)CCCC[C@@H](O)C[C@H](O)[C@H](C)N)OC(=O)C[C@@H](CC(=O)O)C(=O)O [FB1, fumonisin B1] | – | negative (key: IF values above or equal to two were considered as positive when the bacterial survival is above 80%; IF values below 1.5 were considered negative; IF among 2 and 1.5 were considered equivocal) | negative (key: IF values above or equal to two were considered as positive when the bacterial survival is above 80%; IF values below 1.5 were considered negative; IF among 2 and 1.5 were considered equivocal) | negative (key: IF values above or equal to two were considered as positive when the bacterial survival is above 80%; IF values below 1.5 were considered negative; IF among 2 and 1.5 were considered equivocal) | – | IF value reached [2]: 1.99; mutagenic potential in the Ames test [5]: negative; genotoxicity in the SOS chromotest [6]: negative
C[C@@H]1Cc2c(Cl)cc(C(=O)N[C@@H](Cc3ccccc3)C(=O)O)c(O)c2C(=O)O1 [OTA, ochratoxin A] | – | negative (key: IF values above or equal to two were considered as positive when the bacterial survival is above 80%; IF values below 1.5 were considered negative; IF among 2 and 1.5 were considered equivocal) | negative (key: IF values above or equal to two were considered as positive when the bacterial survival is above 80%; IF values below 1.5 were considered negative; IF among 2 and 1.5 were considered equivocal) | negative (key: IF values above or equal to two were considered as positive when the bacterial survival is above 80%; IF values below 1.5 were considered negative; IF among 2 and 1.5 were considered equivocal) | – | mutagenicity in the Ames test [7]: mutagenic; mutagenic response in the Ames test [5]: negative; mutagenicity with Salmonella tester strains [5]: consistently negative; SOS repair activity in SOS chromotest [6]: induced SOS repair activity; response in SOS chromotest [6]: weak response
aflatoxin B1 [AFB1] | – | – | – | – | – | mutagenicity with metabolic activation relative to without bioactivation [5]: 1000 times
CC(=O)OC[C@]12C[C@H](OC(=O)CC(C)C)C(C)=C[C@H]1O[C@@H]1[C@H](O)[C@@H](OC(C)=O)[C@@]2(C)[C@]12CO2 [T-2, T-2 toxin] | three out of four experiments | – | – | – | mutagenic activity was not found | –
CC(=O)O[C@@H]1C[C@]2(C)[C@@]3(CO)[C@H](O)C(=O)C(C)=C[C@H]3O[C@H]1[C@@]21CO1 [3ADON, 3-acetyldeoxynivalenol] | three out of four experiments | – | – | – | mutagenic activity was not found | –
CC1=C[C@H]2O[C@@H]3[C@H](O)C[C@](C)([C@@]2(CO)[C@H](O)C1=O)[C@]31CO1 [DON, deoxynivalenol] | – | negative (key: IF values above or equal to two were considered as positive when the bacterial survival is above 80%; IF values below 1.5 were considered negative; IF among 2 and 1.5 were considered equivocal) | negative (key: IF values above or equal to two were considered as positive when the bacterial survival is above 80%; IF values below 1.5 were considered negative; IF among 2 and 1.5 were considered equivocal) | negative (key: IF values above or equal to two were considered as positive when the bacterial survival is above 80%; IF values below 1.5 were considered negative; IF among 2 and 1.5 were considered equivocal) | mutagenic activity was not found | highest IF value obtained ([2]; Salmonella typhimurium): 1.94; genotoxicity in the SOS chromotest [6]: negative
